The record followed here is US12496302B2, “Compositions and methods for the treatment and diagnosis of cancer” (The General Hospital Corporation, priority 2020, dated 2025).

The subject of experiment [1] is MD-MBA-231 xenograft tumors. Put plainly: MDA-MB-231 xenograft with PARPi. Type of experiment: in vivo, BALB/c nude mice. Conditions: injection every 2 days after day 7, 23 days. The method, then: FIGS. 9A-9G show SYCP2 is required for efficient homologous recombination. (FIG. 9A) Cell survival rate of HeLa and MDAMB231 via colony forming assay with the treatment of 2 μM, 4 μm, 6 μM, 8 μM, 16 μM of Olaparib (n=3, mean+/−S.D.). Western blot of SYCP2 overexpression in HeLa and MDA-MB-231 is shown in the left. (FIG. 9B) Cell survival rate of HeLa via colony forming assay with the treatment of 1 μM, 2 μm, 3 μM of Olaparib (n=3, mean+/−S.D.). Western blot of SYCP2 knockdown in Hela is shown in the left. (FIG. 9C) Scheme of Xenograft design using intraperitoneal injection of MBA-MD-231 into successful developed mouse model with virus-associated SYCP2 knockdown and control groups is shown in the left. PARPi was injected every 2 days after day 7. The graph is shown the recorded tumor size of each tested group with PARPi treatment or saline at each treatment day. (FIG. 9D). Numbers of SYCP2 IR induced foci (IRIF) colocalizing with γH2AX in MDAMB231 and HeLa cells. Cells were fixed and counted for foci numbers after 2 Gy IR followed up indicated recovery time (t=0 hr, 12 hr, 24 hr, and 48 hr) (n=30, mean+/−S.D). (FIG. 9E). […] Fold increase of mean intensity at sites of irradiation compared to mean intensity of nucleus expression is quantified (n=5, mean+/−SD). […] Numbers of RAD51 IRIF in siCtrl and siSYCP2 treated MDAMB231 and U2OS cells after 2 Gy IR and 1 hour recovery were counted (n=20, +/−SD). […]

Experiment [2] deals with cancer cell lines (HST578, MBAMD231, HCC1937, HCC1954). Nature of the experiment: Cell survival (colony) assay with TRDMT1i alone, Example 19. Type of experiment: cell-based. The conditions noted are these: HCC1954 (HRD, high SYCP2). Here is the method: FIGS. 14A-14C show TRDMT1i alone reduce cancer cell survival in a dose-dependent manner. (FIG. 14A) Survival rate of HR proficient (HR+) HST578 cancer cells with and without siBRCA1 and/or TRDMT1i YW-1842 at indicated dose. The survival rate of these cells was analyzed (n=3, Mean±SD). (FIG. 14B) Survival rate of MBAMD231 (HR+) and HCC1937 (HRD) cells. The survival rate of these cells was analyzed (n=3, Mean±SD). (FIG. 14C) Cell survival rate in different cancer cell lines via colony-forming assay with the treatment of Imatinib at indicated dose (n=3, mean+/−S.D.). Cell lines are listed in order with the expression level from SYCP2high to SYCP2low.
HCC1500, HCC1954, BT549, MCF7 and MDAMB468 were cultured in Roswell Park Memorial Institute (RPMI) 1640 Medium (Sigma, R8758) with 10% (vol/vol) fetal bovine serum (FBS, XY Cell Culture, FBS-500) at 37° C., 5% CO2. siBRCA1 (L-003461-00, Dharmacon) was transfected with Lipofectamine RNAiMax (Invitrogen; Carlsbad, CA, USA). PARPi Olaparib (AZD2281/Ku-0059436, Sellekchem, S1060) and Pol theta inhibitor Novobiocin (Sigma) were used.
Cells were seeded in each 6-cm dish and cultured as described above. They were treated with drugs with indicated dose in medium after seeding. After 7-10 days, colonies were fixed and stained with 0.3% crystal violet in methanol, and the number of colonies was counted manually.

Another experiment concerns SKOV3 xenograft tumors. Put plainly: SKOV3 subcutaneous xenograft with Cisplatin. Type of experiment: in vivo, BALB/c nude mice. The conditions noted are these: Lv-shTRDMT1 infected SKOV3 xenografts, Cisplatin 5 mg/kg intratumoral twice per week for 3 weeks. Here is the method:
FIGS. 5A-5E show reduced TRDMT1 expression renders Cisplatin sensitization in vivo. (FIG. 5A) Lv-shTRDMT1 or Lv-NC transfected SKOV3 cells were subcutaneously injected into BALB/c nude mice, a week after injection, Cisplatin (5 mg/kg) or saline was injected into the center of the xenograft tumors twice per week for 3 consecutive weeks. (FIG. 5B) Representative images of tumors in xenografts transfected with LV-shTRDMT1/LV-NC with saline or Cisplatin treatment. (FIG. 5C) Tumor size of SKOV3 subcutaneous xenograft tumors (n=6, Mean±SD). (FIG. 5D) WB for TRDMT1 in tumor tissues collected from mice in each group (Tissues from six tumors in the same group were mixed into one sample). (FIG. 5E) IHC of TRDMT1 and KI-67 expression in ovarian cancer tissues of patients who were platinum-sensitive (PFS>6) and −resistant (PFS<6) Staining was assessed and scored on a scale of 0 (<5% staining) to 4 (>75% staining) in G. Quantification of IHC staining (n=38, PFS>6, n=24; PFS<6, n=14) was shown.
SKOV3 cells (1.0×10^6) were transfected with LV-TRDMT1-RNAi (gcAGAAGA AATTCACAGGAAA, SEQ ID NO: 15) or LV-NC-RNAi and injected […] into female nude mice which were then randomly divided into 4 groups (6 animals per condition). […] PFS was calculated from the time of surgery to the time of progression or recurrence. […]

With `O=C(c1cc(Cc2n[nH]c(=O)c3ccccc23)ccc1F)N1CCN(C(=O)C2CC2)CC1` [olaparib], the “tumor growth reduction by PARPi, SYCP2 knockdown versus control tumors” value in experiment [1] (LV-siSYCP2 tumors) is reported as “more than control tumors”. The “tumor growth, control tumors” value in experiment [1] (siControl tumors) was “reduced the growth of control tumors”. Moreover, the “sensitivity of HCC1954 to PARPi” value in experiment [2] is listed as “relatively resistant”.

For `N.N.[Cl][Pt][Cl]` [cisplatin], the xenograft tumor size result in the experiment on SKOV3 xenograft tumors is “grew statistically smaller”.
